Results as given in patent US11919856B2, “Compounds” (UCL BUSINESS LTD, priority 2018, dated 2024).

Key:
M α1-antitrypsin = target: T1, M α1-antitrypsin (Homo sapiens, UniProt P01009); assay: Compound association experiments (intrinsic tryptophan fluorescence), M α1-antitrypsin; assay type: binding
T1 construct: Alpha1-antitrypsin was purified from the plasma of ZZ and MM α1-antitrypsin homozygotes; from tissue; host or cells: plasma of MM homozygotes
Description: The intrinsic tryptophan fluorescence of α1-antitrypsin is dominated by Trp194 in the breach region (Tew et al. J Mol Biol. 2001 Nov. 9; 313(5):1161-9) and can be used to monitor the progress of compound binding. Plasma M and Z α1-antitrypsin were diluted to 0.2 mg/ml in 100 μM PBS, and Compound 1 (or an equivalent volume of DMSO) added to a concentration of 10 μM. Fluorescence (λex=280 nm, λem=330 nm) was monitored for at least 2 hours, and the half-time of change was calculated.
Kinetic data in stopped flow experiments were fitted to exponential decay curves with offset and linear slope, to account for a constant drift in the background, resulting in observed pseudo-first-order rate constants k(obs): y=A0·e^−k(obs)t+slope·t+offset where t=time and Ao=amplitude at t=0. The second-order on-rate was then obtained as the slope when plotting k(obs) values versus compound concentration. Off-rates were calculated from the on-rates and the KD values determined from the binding assays. Cell Biology

Z α1-antitrypsin [1] = target: T2, Z α1-antitrypsin (Homo sapiens, UniProt P01009, E366K/V237A); assay: Polymerisation of Z α1-antitrypsin in iPSC-derived hepatocytes (ZZ genotype); assay type: cell-based; design: a random insertion of the human Z α1-antitrypsin gene; from tissue; host or cells: liver and plasma of Z α1-antitrypsin transgenic mice (human Z transgene); conditions: read-out: pIC50, polymerisation of Z α1-antitrypsin (converted)
T2 sequence (P01009 25-418 V237A/E366K): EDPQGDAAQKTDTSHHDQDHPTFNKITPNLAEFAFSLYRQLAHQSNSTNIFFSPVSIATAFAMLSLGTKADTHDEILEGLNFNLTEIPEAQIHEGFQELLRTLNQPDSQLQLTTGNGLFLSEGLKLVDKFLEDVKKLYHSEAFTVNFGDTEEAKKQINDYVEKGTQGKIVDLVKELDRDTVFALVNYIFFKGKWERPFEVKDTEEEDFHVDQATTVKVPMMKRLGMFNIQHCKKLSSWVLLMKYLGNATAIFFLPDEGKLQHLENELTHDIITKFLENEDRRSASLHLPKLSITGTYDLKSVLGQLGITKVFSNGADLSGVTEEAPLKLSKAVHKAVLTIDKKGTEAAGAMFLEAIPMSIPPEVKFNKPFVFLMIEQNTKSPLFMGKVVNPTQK
Description: In order to confirm that the potency and efficacy of Compound 1 in CHO-TET-ON-Z-A1AT was a reasonable estimate of what could be expected in hepatocytes with endogenous levels of expression, the effect of Compound 1 on the secretion and polymerisation of Z α1-antitrypsin was measured in iPSC-derived hepatocytes with the ZZ α1-antitrypsin genotype (Yusa et al. Nature. 2011; 478:391-4).

Z α1-antitrypsin [2] = target: T2, Z α1-antitrypsin; assay: Circulating monomeric Z α1-antitrypsin in plasma of Z α1-antitrypsin transgenic mice; assay type: in vivo; design: a random insertion of the human Z α1-antitrypsin gene; from tissue; host or cells: liver and plasma of Z α1-antitrypsin transgenic mice (human Z transgene)
Description: In order to investigate the therapeutic potential of Compound 1 in Z α1-antitrypsin deficiency, the compound was tested in a transgenic mouse model engineered with a random insertion of the human Z α1-antitrypsin gene (Teckman et al. Am J Physiol Gastrointest Liver Physiol. 2004; 286:G851-G62). To determine a suitable dose regimen for Compound 1 in these studies the total and unbound exposure in transgenic mice was estimated in an in silico model.
To explore the PK-PD relationship of Compound 1, Z α1-antitrypsin transgenic animals were dosed with 100, 30 or 10 mg/kg Compound 1 three times a day and on day 6 blood and liver were harvested at 3 hr (˜Cmax) and 8 hr (Cmin) after the dose for the measurement of total and free drug in both tissues. Blood was also harvested for the measurement of monomeric Z α1-antitrypsin in plasma. Total concentrations of Compound 1 were determined by specific LC-MS/MS assay and the free unbound drug in both tissues was determined using equilibrium dialysis and used to derive unbound concentrations.
Recent work has shown that a significant fraction of the total Z α1-antitrypsin in the circulation is in the polymeric conformation (Tan et al. Eur Respir J. 2014; 43(5):1501-4). […] Monomeric Z α1-antitrypsin was measured in plasma samples following 6 days of dosing and levels were normalised to each animals' pre-dose control levels to account for the natural variation of Z α1-antitrypsin between animals. […]
Since Compound 1 blocks polymer formation in cells the effect of dosing Compound 1 on liver polymer levels was explored. […] On days 15 and 21 of dosing, changes of monomeric Z α1-antitrypsin plasma samples were determined as above, and increases of 7- to 8-fold over the pre-dosing baseline levels were observed, similar to the effect in animals dosed for 3 or 6 days, consistent with sustained target engagement through the dosing period. […] There was no difference observed in total liver polymer load via manual or quantitative scoring.

T1 sequence (P01009 25-418): as the sequence (P01009 25-418 V237A/E366K) above, with A213V, K342E counted along it

CCC[C@@H](NC(=O)c1cccc2c1CC(=O)N2)[C@@H](O)c1cccc(F)c1C [Compound 1, N-[(1S,2R)-1-(3-fluoro-2-methylphenyl)-1-hydroxypentan-2-yl]-2-oxo-2,3-dihydro-1H-indole-4-carboxamide]
koff (M α1-antitrypsin; calculated from on-rate and KD, read-out: first-order dissociation rate): 1.6e-05 s⁻¹ | kon (M α1-antitrypsin; read-out: second-order association rate): 210 M⁻¹ s⁻¹ | IC50 (Z α1-antitrypsin [1]): 0.398 µM | increase in circulating Z α1-antitrypsin (Z α1-antitrypsin [2]; 30 mg/kg and 10 mg/kg three times a day, 6 days): significant, dose-dependent increases | increase of plasma concentrations of the serpin (Z α1-antitrypsin [2]; transgenic mouse model): up to 8 fold | increase in circulating levels of Z α1-antitrypsin (Z α1-antitrypsin [2]; within 3 days of dosing, maintained throughout the experiment): 7 fold
